Test results reported in patent publication US20210308196A1, “COMPOSITIONS AND METHODS TO PROMOTE HOST DEFENSE AND STIMULATE, EXPAND, AND/OR RESET T CELL REPERTOIRES” (EVOLVE BIOSYSTEMS, INC., priority 2018, published 2021).

What was measured:
fecal bacteria = experiment: Fecal microscopy (Gram-stained light microscopy, SEM); assay type: in vivo, human
Experimental: Fecal Microscopy. All samples were fixed by adding equal amount of 5% glutaraldehyde in 0.2 M cacodylate buffer (final concentration 2.5% glutaraldehyde in 0.1 M cacodylate buffer) for 1-2 h before being processed for Gram-stained light microscopy and scanning electron microscopy (SEM). For light microscopy, conventional Gram-stained samples on slides were imaged under an EVOS Auto-FL system using a 60× lens and 2.7× optical zoom, under the same setting of the color camera. Five random fields of images were collected from each sample slide. For SEM, since the samples were previously frozen before fixation, the osmium post-fixation, and critical-point dry procedures were not performed. The fixed samples were dehydrated through an ethanol series and placed on membrane filters. The samples were mounted onto the SEM stubs, aired overnight, and then vacuum-oven dried at 50° C. for >2 h before sputter-coating with a thin layer of chromium using Denton Desk V sputter. Images were collected under various magnifications to capture bacterial morphology using a Hitachi […] field-emission SEM. Microscopy confirmed the high levels of Bifidobacterium in samples from the treatment group.

[1] = tested on: TLR2, TLR4, TNF and COX-2; experiment: qPCR of inflammatory markers in sloughed off intestinal epithelial cells; assay type: in vivo, human; conditions: treatment group
Description: Expression of inflammatory markers including Toll like receptor (TLR) 2 and TLR4, COX-2 and TNF in intestinal epithelial cells: Previous data has implemented TLR2 in controlling mucosal inflammation by regulating intestinal epithelial barrier function. Further, a significant TLR4-dependent increase in Cox-2 expression has been shown in intestinal epithelial cells post exposure to lipopolysaccharide. TNF-α, a cytokine that plays a key role in mucosal inflammation, is readily detectable at the expression and protein levels in children who have various intestinal pathologies.

[2] = Metabolomic analysis of infant feces (UPLC-MS/MS); assay type: in vivo, human
Experimental: Fecal samples from infants of Example 1 were evaluated as described below to characterize the fecal metabolome and what effects colonization by this organism may have on the infant's metabolism as a whole.
Sample Preparation: Fecal samples were maintained at −80° C. until processed. Samples were prepared using the automated MicroLab STAR® system from Hamilton Company. Several recovery standards were added prior to the first step in the extraction process for QC purposes. To remove protein, dissociate small molecules bound to protein or trapped in the precipitated protein matrix, and to recover chemically diverse metabolites, proteins were precipitated with methanol under vigorous shaking for 2 min (Glen Mills GenoGrinder 2000) followed by centrifugation. The resulting extract was divided into five fractions: two for analysis by two separate reverse phase (RP)/UPLC-MS/MS methods with positive ion mode electrospray ionization (ESI), one for analysis by RP/UPLC-MS/MS with negative ion mode ESI, one for analysis by HILIC/UPLC-MS/MS with negative ion mode ESI, and one sample was reserved for backup. Samples were placed briefly on a TurboVap® (Zymark) to remove the organic solvent. The sample extracts were stored overnight under nitrogen before preparation for analysis.
Preparation of study-tracking replicates. A small aliquot of each sample was pooled to create a study tracking sample, which was then injected periodically throughout the platform run. Variability detected in the study tracking sample among consistently detected biochemicals can be used to calculate an estimate of overall process and platform variability.
Ultrahigh Performance Liquid Chromatography-Tandem Mass Spectroscopy (UPLC-MS/MS): All methods utilized a Waters ACQUITY ultra-performance liquid chromatography (UPLC) and a Thermo Scientific Q-Exactive high resolution/accurate mass spectrometer interfaced with a heated electrospray ionization (HESI-II) source and Orbitrap mass analyzer operated at 35,000 mass resolution. The sample extract was dried then reconstituted in solvents compatible to each of the four methods. Each reconstitution solvent contained a series of standards at fixed concentrations to ensure injection and chromatographic consistency. One aliquot was analyzed using acidic positive ion conditions, chromatographically optimized for more hydrophilic compounds. In this method, the extract was gradient eluted from a C18 column (Waters UPLC BEH C18-2.1×100 mm, 1.7 μm) using water and methanol, containing 0.05% perfluoropentanoic acid (PFPA) and 0.1% formic acid (FA). Another aliquot was also analyzed using acidic positive ion conditions, however it was chromatographically optimized for more hydrophobic compounds. In this method, the extract was gradient eluted from the same afore mentioned C18 column using methanol, acetonitrile, water, 0.05% PFPA and 0.01% FA and was operated at an overall higher organic content. Another aliquot was analyzed using basic negative ion optimized conditions using a separate dedicated C18 column. The basic extracts were gradient eluted from the column using methanol and water, however with 6.5 mM Ammonium Bicarbonate at pH 8. The fourth aliquot was analyzed via negative ionization following elution from a HILIC column (Waters UPLC BEH Amide 2.1×150 mm, 1.7 μm) using a gradient consisting of water and acetonitrile with 10 mM Ammonium Formate, pH 10.8. The MS analysis alternated between MS and data-dependent MS' scans using dynamic exclusion. The scan range varied slighted between methods but covered 70-1000 m/z.
Data Extraction and Compound Identification: Raw data was extracted, peak-identified and QC processed using Proprietary hardware and software. […]

peanut allergy = experiment: Prevention of human peanut allergy in infants; assay type: in vivo; conditions: high-level colonization vs control group with low-level colonization
Experimental: Infants 2-4 months of age at risk of allergy are recruited and their stool is screened for their Bifidobacterium infantis status (Bifidobacterium infantis abundance). The infants are divided into 2 groups: high Bifidobacterium (desirable infant gut microbiome) and low Bifidobacterium (dysbiotic infant gut microbiome). Low Bifidobacterium stool samples are determined to be low Bifidobacterium or dysbiotic, if their levels of Bifidobacterium are less than a threshold of 10^8 CFU/ug DNA and/or Bifidobacteriaceae family is less than 35% of the total infant gut microbiome as measured by a next generation sequencing, such as 16S RNA sequence. Conversely, a high Bifidobacterium sample or desirable infant gut microbiome has a threshold of 10^8 CFU/ug DNA or greater and/or Bifidobacteriaceae family is greater than 35% of the total infant gut microbiome. Once the infants are screened, the dysbiotic group is randomized into a placebo arm or a supplemented arm receiving activated B. infantis, LNnT and retinol. Infants are fed the supplement or placebo for 16 weeks. At 12 weeks, peanut extract is introduced to the diet for 3 days to infants who are at least 4 months old. Blood samples are taken at 12 weeks, 16 weeks, 20 weeks, 24 weeks, 36 weeks, 40 weeks to analyze TReg cells and IgE. At 9 months, the infants are brought in for a peanut challenge. The incident of allergy between groups is analyzed.

[3] = day 28, fold-change active:control
[4] = intervention/control, outlier removed

Bifidobacterium longum subsp. infantis EVC001 [B. infantis EVC001]
Bifidobacterium in fecal samples by microscopy (fecal bacteria; samples from the treatment group): high levels
Gram staining of fecal smears (fecal bacteria; three fecal samples, Day 40): overwhelmingly contained Gram-positive bacteria
Bacterial morphology in fecal samples (fecal bacteria; three fecal samples, Day 40, multiple fields of view): uniform morphology of rod-shaped bacteria
Expression of TLR2, TLR4, TNF and COX-2 [1]: significantly reduced
creatinine Active/Control [2, 3]: 1.4
gamma-glutamyl-alpha-lysine Active/Control [2, 3]: 3.3
gamma-glutamyl-epsilon-lysine Active/Control [2, 3]: 2.4
gamma-glutamylalanine Active/Control [2, 3]: 5.9
gamma-glutamylcysteine Active/Control [2, 3]: 44.3
gamma-glutamylglutamate Active/Control [2, 3]: 3.1
gamma-glutamylglutamine Active/Control [2, 3]: 1.6
gamma-glutamylhistidine Active/Control [2, 3]: 10.5
gamma-glutamylisoleucine* Active/Control [2, 3]: 8.1
gamma-glutamylleucine Active/Control [2, 3]: 1.6
gamma-glutamylmethionine Active/Control [2, 3]: 19.3
gamma-glutamylphenylalanine Active/Control [2, 3]: 4.2
gamma-glutamylthreonine Active/Control [2, 3]: 7.15
gamma-glutamyltyrosine Active/Control [2, 3]: 2.8
gamma-glutamylvaline Active/Control [2, 3]: 3.3
Gamma-glutamyl Threonine Int/con ([2]; intervention/control): 5.35
N-acetyl Threonine Int/con ([2]; intervention/control): 3.07
Threonine Int/con ([2]; intervention/control): 3.21
Gamma-glutamyl Threonine Int/Con with outlier removed [2, 4]: 7.15
N-acetyl Threonine Int/Con with outlier removed [2, 4]: 3.67
Threonine Int/Con with outlier removed [2, 4]: 4.35
Fecal retinol ([2]; versus control): significantly reduced
Inflammatory responses to the food antigen (peanut allergy): reduces
